Laboratory results as given in patent publication US5998436A, “Pyridonecarboxylic acid derivatives or their salts and antibacterial agent comprising the same as the active ingredient” (Wakunaga Pharmaceuticals Co., Ltd., priority 1995, dated 1999).
≈ marks a conversion by molar mass, not a printed value. Counter-ions that a name gives are not always drawn. Like-named read-outs stand apart in the source and are kept apart here.

Legend:
S. epidermidis IFO12293 = assay: minimum growth inhibitory concentration (MIC), standard method of Japan Chemotherapy Society; assay type: cell-based; conditions: Staphylococcus epidermidis
Method: (§1) It should be noted that ciprofloxacin, levofloxacin,sparfloxacin and tosufloxacin which are conventional antibacterials were also evaluated for their minimum growth inhibitory concentration (MIC, μg/ml) for the purpose of comparison.

P. aeruginosa IFO 3445 = assay: as above; assay type: cell-based; conditions: Pseudomonas aeruginosa
Method: as §1

S. aureus 209P = assay: as above; assay type: cell-based; conditions: Staphylococcus aureus, read-out: minimum growth inhibitory concentration (MIC)
Method: as §1

Female ICR mice (ears) = conditions: mouse, in vivo, iv, 40 mg/kg
Method: The compounds of the Examples 9, 10, 12 and 39 as described above were subjected to phototoxicity test by the procedure as described below.
Female ICR mice (5 to 6 week old) were intravenously administered with the test compound (40 mg/kg/10 ml), and irradiated with UV (320 to 400 nm, 1.8 mW/cm^2 /sec) for 4 hours. Abnormality in the ears was monitored at 0 hour (immediately after the irradiation) and after 24 and 48 hours. The ear abnormality was evaluated by the following is criteria: no abnormality (0 point), very slight erythema (1 point), well defined erythema (2 points), moderate to severe erythema and edema formation (3 points). Tosufloxacin which is a conventional known antibacterial agent was also tested in a similar way for the purpose of comparison.

[1] = S. epidermidis IFO12293, read-out: minimum growth inhibitory concentration (MIC)
[2] = IFO3445, P. aeruginosa IFO 3445, read-out: minimum growth inhibitory concentration (MIC)

SMILES	MIC (S. epidermidis IFO12293; IFO12293, read-out: minimum growth inhibitory concentration (MIC))	MIC (P. aeruginosa IFO 3445; IFO3445, read-out: minimum growth inhibitory concentration (MIC))	MIC (S. aureus 209P; 209P)	MIC (S. epidermidis IFO12293; [1])	MIC (P. aeruginosa IFO 3445; [2])	MIC (S. aureus 209P; S. aureus 209P)	ear abnormality score (0 no abnormality, 1 very slight erythema, 2 well defined erythema, 3 moderate to severe erythema and edema) (Female ICR mice (ears))	ear abnormality, occurrence (Female ICR mice (ears))
O=C(O)c1cn(C2CC2)c2cc(N3CCNCC3)c(F)cc2c1=O [Ciprofloxacin, ciprofloxacin, reference compound]	0.39 µg/mL (≈ 1.18 µM)	0.2 µg/mL (≈ 0.604 µM)	0.1 µg/mL (≈ 0.302 µM)					
CNC1CN(c2c(F)cc3c(=O)c(C(=O)O)cn(-c4nc(N)c(F)cc4F)c3c2Cl)C1 [Ex. 10, 1-(6-amino-3,5-difluoropyridin-2-yl)-8-chloro-6-fluoro-7-(3-methylaminoazetidin-1-yl)-4-oxo-1,4-dihydroquinoline-3-carboxylic acid]				0.025 µg/mL (≈ 0.0551 µM)	0.1 µg/mL (≈ 0.22 µM)	< 0.013 µg/mL	0 point	0/3
C[C@H]1COc2c(N3CCN(C)CC3)c(F)cc3c(=O)c(C(=O)O)cn1c23 [Levofloxacin, levofloxacin, reference compound]				0.39 µg/mL (≈ 1.08 µM)	0.39 µg/mL (≈ 1.08 µM)	0.1 µg/mL (≈ 0.277 µM)		
NC1CCN(c2nc3c(cc2F)c(=O)c(C(=O)O)cn3-c2ccc(F)cc2F)C1 (centres unmarked) [Tosufloxacin, tosufloxacin, reference compound]				0.2 µg/mL (≈ 0.495 µM)	0.39 µg/mL (≈ 0.965 µM)	0.05 µg/mL (≈ 0.124 µM)		
Nc1nc(-n2cc(C(=O)O)c(=O)c3cc(F)c(N4CC(O)C4)c(Cl)c32)c(F)cc1F [Ex. 12, 3-hydroxyazetidine salt of 1-(6-amino-3,5-difluoropyridin-2-yl)-8-chloro-6-fluoro-7-(3-hydroxyazetidin-1-yl)-4-oxo-1,4-dihydroquinoline-3-carboxylic acid]				< 0.013 µg/mL	0.39 µg/mL	< 0.013 µg/mL	0 point	0/3
Nc1nc(-n2cc(C(=O)O)c(=O)c3cc(F)c(N4CC(N)C4)c(Cl)c32)c(F)cc1F [Ex. 9, 7-(3-aminoazetidin-1-yl)-1-(6-amino-3,5-difluoropyridin-2-yl)-8-chloro-6-fluoro-4-oxo-1,4-dihydroquinoline-3-carboxylic acid]				0.025 µg/mL (≈ 0.0568 µM)	0.05 µg/mL (≈ 0.114 µM)	< 0.013 µg/mL	0 point	0/3
Nc1nc(-n2cc(C(=O)O)c(=O)c3cc(F)c(N4CC(N)C4)c(Br)c32)c(F)cc1F [Ex. 39, 7-(3-aminoazetidin-1-yl)-1-(6-amino-3,5-difluoropyridin-2-yl)-8-bromo-6-fluoro-4-oxo-1,4-dihydroquinoline-3-carboxylic acid]				0.025 µg/mL (≈ 0.0516 µM)	0.05 µg/mL (≈ 0.103 µM)	< 0.013 µg/mL	0 point	0/3
C[C@@H]1CN(c2c(F)c(N)c3c(=O)c(C(=O)O)cn(C4CC4)c3c2F)C[C@H](C)N1 [Sparfloxacin, sparfloxacin, reference compound]				0.2 µg/mL (≈ 0.51 µM)	0.78 µg/mL (≈ 1.99 µM)	0.1 µg/mL (≈ 0.255 µM)		
